According to article PMC3626250, “Effects of Borneol on Pharmacokinetics and Tissue Distribution of Notoginsenoside R1 and Ginsenosides Rg1 and Re in Panax notoginseng in Rabbits” (Journal of Analytical Methods in Chemistry, 2013):
Marks after values point to notes of the source that are not given here.

Tests used:
[1] = Tissue distribution study in rabbits after oral Panax notoginseng extract with or without Borneol; format: in vivo, New Zealand rabbits
Method: (§1) Frozen plasma and tissue samples were thawed in a water bath at 37°C and were then vortexed followed by centrifuging at 5000 r·min^−1 for 5 min. An aliquot of 1.0 mL of the supernatant from each sample was loaded onto C18 Bond Elute Solid phase extraction (SPE) cartridges (1000 mg, 1 cc reservoir, Varian, Harbor City, CA, USA) pretreated with 2.0 mL hexane, isopropanol, methanol, and water, sequentially. The SPE cartridges were then washed with 1.0 mL water, 20% methanol/water solution, 40% methanol/water solution, and 60% methanol/water solution, sequentially. Finally, analytes were eluted twice with 1.0 mL of 70% methanol/water solution. The eluant was evaporated to dryness under nitrogen. The residues were then reconstituted in 1.0 mL mobile phase. An aliquot of 10 μL was injected into the LC-MS system.
One group of rabbits (n = 18) was orally administered a dose of 3.0 mL·kg^−1 Panax notoginseng extract, while another group of rabbits (n = 18) was orally given 3.0 mL·kg^−1 Panax notoginseng extract combined with Borneol. At 0.5, 1, and 3 h after administration, blood samples were collected from the central ear artery of six rabbits from each group, and the heart, liver, lung, kidney, and brain were immediately removed after animals were sacrificed by decapitation. An accurately weighed amount of tissue (1 g) was collected to be rinsed, dried, minced, and homogenized (400 r·min^−1) in normal saline (1.5 mL). All of the samples were stored at −70°C and were processed prior to analysis with the proposed method as described in Section 2.6.

[2] = Pharmacokinetics study in rabbits after oral Panax notoginseng extract with or without Borneol (plasma, SPE-HPLC-MS); format: in vivo, New Zealand rabbits
Method: Liquid chromatography was carried out on an Agilent 1100 HPLC system with an auto sampler, a quaternary pump and a vacuum degasser (Waldoboro, Frankfurt, Germany). Operations were controlled by Agilent Chemstation 4.2 software (Littleforts, Philadelphia, USA). Separations were achieved on a reversed-phase HPLC column (Zorbax SB-C18 150 × 2.1 mm, 5.0 μm particle size). A solution of acetonitrile and water (V : V, 20 : 80) with 0.1% (V : V) ammonium formate was used as the mobile phase. The flow rate was set at 0.3 mL·min^−1 and the column temperature was 25°C. Under these conditions, NGR1, GRg1, and GRe in plasma samples were separated efficiently without any interferences.
MS^n detection was performed on an Agilent SL trap MS system (Waldoboro, Frankfurt, Germany). The ion source-dependent (electrospray ionization) conditions were the same for all analyses with a spraying voltage of −4500 V in the negative ion mode. The pressure of the nebulizing gas (nitrogen) was set at 35 p.s.i. The flow rate of the drying gas (nitrogen) was set at 7.0 L·min^−1 with the temperature of 325°C. The collision gas (He) for the MS^n mode at trap was set at flow of 4 (instrument unit). The voltage of the capillary was set at 4000 V, and its end plate offset was −500 V. Scan range was from 500 to 1500 m/z.
as §1
Eighteen rabbits were randomly divided into three groups of 6 subjects and were orally given 3.0 mL·kg^−1 normal saline, 3.0 mL·kg^−1 Panax notoginseng extract, and 3.0 mL·kg^−1 Panax notoginseng extract combined with Borneol, respectively. Plasma samples were collected in heparinized tubes from the central ear artery at 0.0, 5.0, 10.0, 20.0, 30.0, 45.0, 60.0, 75.0, 90.0, 120.0, 180.0, 300.0 and 480.0 min after dose. After each sampling, the same volume of 0.9% saline solution was injected from the ear vein to compensate the loss of blood. The plasma obtained was frozen at −70°C for storage and was processed prior to analysis with the proposed method as described in Section 2.6.
Statistical analysis of the biological data was performed using the Student's t-test. The drug analysis system 2.0 (DAS 2.0, T.C.M., Shanghai, China) was used to calculate the pharmacokinetic parameters, such as the area under curve (AUC), the maximum plasma concentration (C max), the time needed to reach the maximum plasma concentration (t max) and the half-life of absorption, and distribution and elimination (t 1/2Ka, t 1/2α, t 1/2β).

[3] = 0.5 h, oral Panax notoginseng with Borneol
[4] = 1.0 h, oral Panax notoginseng with Borneol
[5] = 3.0 h, oral Panax notoginseng with Borneol
[6] = Borneol combined with Panax notoginseng, peak levels at 1.0 h
[7] = oral 3.0 mL·kg^−1 Panax notoginseng extract
[8] = oral 3.0 mL·kg^−1 Panax notoginseng extract combined with Borneol

## CC(C)=CCC[C@](C)(O[C@@H]1O[C@H](CO)[C@@H](O)[C@H](O)[C@H]1O)[C@H]1CC[C@]2(C)[C@@H]1[C@H](O)C[C@@H]1[C@@]3(C)CC[C@H](O)C(C)(C)[C@@H]3[C@@H](O[C@@H]3O[C@H](CO)[C@@H](O)[C@H](O)[C@H]3O[C@@H]3OC[C@@H](O)[C@H](O)[C@H]3O)C[C@]12C [NGR1, notoginsenoside R1]
[1]; 0.5 h, oral Panax notoginseng
  Concentration in brain: 0.65 ± 0.24 µg/g
  Concentration in heart: 3.90 ± 0.53 µg/g
  Concentration in kidney: 2.85 ± 0.45 µg/g
  Concentration in liver: 1.38 ± 0.54 µg/g
  Concentration in lung: 1.77 ± 0.46 µg/g
  Concentration in plasma: 1.67 ± 0.05 µg/mL
[1]; [3]
  Concentration in brain: 4.02 ± 0.46 µg/g
  Concentration in heart: 4.68 ± 0.21 µg/g
  Concentration in kidney: 3.98 ± 0.12 µg/g
  Concentration in liver: 8.24 ± 0.42 µg/g
  Concentration in lung: 5.79 ± 0.29 µg/g
  Concentration in plasma: 1.62 ± 0.07 µg/mL
[1]; 1.0 h, oral Panax notoginseng
  Concentration in brain: 0.81 ± 0.26 µg/g
  Concentration in heart: 4.26 ± 0.27 µg/g
  Concentration in kidney: 2.74 ± 0.33 µg/g
  Concentration in liver: 1.66 ± 0.28 µg/g
  Concentration in lung: 1.82 ± 0.20 µg/g
  Concentration in plasma: 1.29 ± 0.20 µg/mL
[1]; [4]
  Concentration in brain: 5.58 ± 0.68 µg/g
  Concentration in heart: 5.55 ± 0.31 µg/g
  Concentration in kidney: 3.38 ± 0.34 µg/g
  Concentration in liver: 9.29 ± 0.72 µg/g
  Concentration in lung: 9.96 ± 0.66 µg/g
  Concentration in plasma: 1.46 ± 0.05 µg/mL
[1]; 3.0 h, oral Panax notoginseng
  Concentration in brain: 0.48 ± 0.14 µg/g
  Concentration in heart: 3.31 ± 0.32 µg/g
  Concentration in kidney: 1.94 ± 0.24 µg/g
  Concentration in liver: 0.89 ± 0.12 µg/g
  Concentration in lung: 1.51 ± 0.16 µg/g
  Concentration in plasma: 0.16 ± 0.06 µg/mL
[1]; [5]
  Concentration in brain: 3.69 ± 0.84 µg/g
  Concentration in heart: 4.59 ± 0.52 µg/g
  Concentration in kidney: 2.27 ± 0.28 µg/g
  Concentration in liver: 6.87 ± 0.61 µg/g
  Concentration in lung: 4.56 ± 0.75 µg/g
  Concentration in plasma: 0.49 ± 0.02 µg/mL
[1]; Borneol combined with Panax notoginseng, at 1.0 h
  level in kidney, fold higher than the plasma concentrations: 2.3 fold
[1]; [6]
  level in brain, fold higher than the plasma concentrations: 3.82 fold
  level in liver, fold higher than the plasma concentrations: 6.36 fold
  level in lung, fold higher than the plasma concentrations: 6.82 fold
[2]; [7]
  AUC0–t: 162.1 ± 42.7 mg/L/min
  AUC0–∞: 164.0 ± 51.8 mg/L/min
  C max: 2.12 ± 0.46 mg/L
  CL/F: 0.488 ± 0.091 L/min/kg
  K 10: 0.018 ± 0.005 min⁻¹
  K 12: 0.000 ± 0.000 min⁻¹
  K 21: 0.014 ± 0.007 min⁻¹
  K a: 0.060 ± 0.004 min⁻¹
  T lag: 2.38 ± 0.49 min
  T max: 45.0 ± 9.8 min
  V/F: 27.3 ± 8.6 L/kg
  t 1/2Ka: 11.6 ± 2.4 min
  t 1/2α: 38.5 ± 4.5 min
  t 1/2β: 47.9 ± 8.1 min
  α: 0.018 ± 0.008 min⁻¹
  β: 0.014 ± 0.003 min⁻¹
[2]; [8]
  AUC0–t: 306.3 ± 82.9 mg/L/min
  AUC0–∞: 395.3 ± 101.4 mg/L/min
  C max: 1.62 ± 0.30 mg/L
  CL/F: 0.506 ± 0.027 L/min/kg
  K 10: 0.009 ± 0.002* min^−1
  K 12: 0.015 ± 0.005** min^−1
  K 21: 0.011 ± 0.002 min⁻¹
  K a: 0.037 ± 0.005** min^−1
  T lag: 1.04 ± 0.21 min
  T max: 30.0 ± 8.0 min
  V/F: 58.8 ± 6.9 L/kg
  t 1/2Ka: 18.8 ± 3.1 min
  t 1/2α: 28.4 ± 3.2 min
  t 1/2β: 69.3 ± 5.2 min
  α: 0.024 ± 0.005 min⁻¹
  β: 0.010 ± 0.003* min^−1
